Experimental data taken from PMC5065625, “Structure-mechanism-based engineering of chemical regulators targeting distinct pathological factors in Alzheimer's disease” (Nature Communications, 2016).
Each block holds one compound with its values, some of them ahead of it.

Experiments:
[1] = system: Aβ40/Aβ42 toxicity in M17 cells; test: Cell viability (MTT assay), compounds with Aβ and metal–Aβ; assay type: cell-based, human; details: compound 20 μM, Aβ40/Aβ42 20 μM, CuCl2 or ZnCl2 20 μM, 24 h
Procedure: (§1) The M17 cell line was purchased from the American Type Culture Collection (ATCC, Manassas, VA, USA). The cell line was maintained in media containing 50% minimum essential medium and 50% F12 (GIBCO, Grand Island, NY, USA), supplemented with 10% fetal bovine serum (Sigma), 100 U ml^−1 penicillin, and […] streptomycin (GIBCO). The cells were grown and maintained at 37 °C in a humidified atmosphere with 5% CO2. […] Cell viability upon treatment of compounds was determined using the MTT assay (Sigma). M17 cells were seeded in a 96-well plate (15,000 cells in 100 μl per well). The cells were treated with Aβ (20 μM) with or without CuCl2 or ZnCl2 (20 μM), followed by the addition of compounds (20 μM, 1% v/v final DMSO concentration), and incubated for 24 h. After incubation, 25 μl MTT (5 mg ml^−1 in phosphate buffered saline (PBS, pH 7.4, GIBCO) was added to each well and the plate was incubated for 4 h at 37 °C. Formazan produced by the cells was solubilized using an acidic solution of N,N-dimethylformamide (DMF, 50%, v/v aq) and SDS (20%, w/v) overnight at room temperature in the dark. The absorbance was measured at 600 nm using a microplate reader. Cell viability was calculated relative to cells containing an equivalent amount of DMSO.

[2] = system: 5 × FAD AD mouse model; test: Morris water maze test; assay type: in vivo; details: 1 mg kg^−1 daily i.p., 30 days
Procedure: (§2) Chemicals used were freshly prepared shortly before administration to the animals. We treated 5 × FAD mice with 1 (1 mg kg^−1 of body weight) or the vehicle (1% v/v DMSO in 20 mM HEPES, pH 7.4, 150 mM NaCl) starting at 3 months of age, which is the same method used in our previous studies. 1 was daily injected into the lower abdomen of the 5 × FAD mice for 30 days.
Mice were subjected to the Morris water maze test to assess their performance of spatial learning and memory. The water maze was a circular plastic pool (120 cm diameter) and filled with murky water (21.0±1.0 °C). A cylindrical escape platform (15 cm diameter) stood 0.5 cm under the water surface. Three hours after the 30th compound treatment, the mice were allowed the first training to swim and find the hidden escape platform in the water with three repeats per training. Thereafter, they daily tried the task on the next 4 consecutive days. Three hours after the final escape test, the platform was removed, and the mice exercised a probe trial for 60 s. The animal performance was traced with SMART Video Tracking System (Harvard Apparatus, Holliston, MA, USA).

[3] = system: 5 × FAD mice; test: Tolerability and body weight during 30-day treatment; assay type: in vivo, mouse
Text: The amyloidogenic characteristics of 5 × FAD mice have been described previously. In brief, 5 × FAD mice express the Swedish/London/Florida mutations of the human amyloid precursor protein (hAPP) and the M146L/L286V mutations of the human presenilin-1 (PSEN1). They develop the early and robust pathology of AD with the cognitive and behavioural impairments. The 5 × FAD mice have been widely used to test the possible efficacy of a compound targeted for AD[25][29]. We maintained the mice on a C57BL/6 × SJL hybrid background. All animal experiments were performed in accordance with the guidelines of the Asan Institute for Life Science for Laboratory Animal Care and Use (Seoul, Korea), where the animals had free access to water and food, and were housed on 12 h light/12 h dark cycle.
as §2

[4] = Solubility; assay type: physicochemical
[5] = UV–vis variable-pH titration (pKa); assay type: physicochemical; details: aqueous solution (10 mM NaOH, 100 mM NaCl) titrated with HCl, 100 μM
Procedure: (§3) The pKa value for 2 was determined by UV–vis variable-pH titrations as previously reported. To establish the pKa value, a solution (10 mM NaOH, pH 12, 100 mM NaCl) of 2 (100 μM) was titrated with small amounts of HCl. At least 30 spectra were recorded in the range of pH 2–10. Similarly, a solution containing CuCl2 and 2 (50 μM) in a metal to ligand ratio of 1:2 was titrated with small additions of HCl and at least 30 spectra were recorded over the range pH 2–7. The acidity and stability constants were calculated by using the HypSpec program (Protonic Software, UK)[56]. Speciation diagrams were modelled in the HySS2009 program (Protonic Software)[57].

[6] = UV–vis variable-pH titration of Cu(II)–2 (binding affinity)
Procedure: as §3

[7] = Cell viability (MTT assay), compounds with and without metal ions; assay type: cell-based, human; details: human, SK-N-BE(2)-M17 (M17) neuroblastoma cells; M17 cells, in the absence of Cu(II), 48 and 72 h
Procedure: as §1

[8] = 1 mg kg^−1 daily, intraperitoneal, 30 days, 5 × FAD mice

Structure (SMILES): Nc1ccc(NCc2ccccn2)cc1 [compound 1, N^1-(pyridin-2-ylmethyl)benzene-1,4-diamine]
Toxicity induced by metal–Aβ [1]: diminished
Finding the hidden escape platform (trial trainings) [2]: faster than the vehicle-treated 5 × FAD mice
Probe trials, long-term spatial memory [2]: significant improvement of the long-term spatial memory
Body weight versus vehicle-treated mice [3, 8]: no difference in body weight
Tolerability of repeated treatments [3, 8]: tolerated the repeated treatments
Body weight, female, day 1 ([3]; 5×FAD mice, 1 mg/kg/day, mean): 20.8 gram
Body weight, female, day 3 ([3]; 5×FAD mice, 1 mg/kg/day, mean): 20.8 gram
Body weight, female, day 6 ([3]; 5×FAD mice, 1 mg/kg/day, mean): 20.8 gram
Body weight, female, day 9 ([3]; 5×FAD mice, 1 mg/kg/day, mean): 21.0 gram
Body weight, female, day 12 ([3]; 5×FAD mice, 1 mg/kg/day, mean): 21.2 gram
Body weight, female, day 15 ([3]; 5×FAD mice, 1 mg/kg/day, mean): 20.8 gram
Body weight, female, day 18 ([3]; 5×FAD mice, 1 mg/kg/day, mean): 21.2 gram
Body weight, female, day 21 ([3]; 5×FAD mice, 1 mg/kg/day, mean): 21.4 gram
Body weight, female, day 24 ([3]; 5×FAD mice, 1 mg/kg/day, mean): 21.4 gram
Body weight, female, day 27 ([3]; 5×FAD mice, 1 mg/kg/day, mean): 21.8 gram
Body weight, female, day 30 ([3]; 5×FAD mice, 1 mg/kg/day, mean): 21.6 gram
Body weight, male, day 1 ([3]; 5×FAD mice, 1 mg/kg/day, mean): 28.0 gram
Body weight, male, day 3 ([3]; 5×FAD mice, 1 mg/kg/day, mean): 27.6 gram
Body weight, male, day 6 ([3]; 5×FAD mice, 1 mg/kg/day, mean): 27.6 gram
Body weight, male, day 9 ([3]; 5×FAD mice, 1 mg/kg/day, mean): 27.8 gram
Body weight, male, day 12 ([3]; 5×FAD mice, 1 mg/kg/day, mean): 27.4 gram
Body weight, male, day 15 ([3]; 5×FAD mice, 1 mg/kg/day, mean): 27.8 gram
Body weight, male, day 18 ([3]; 5×FAD mice, 1 mg/kg/day, mean): 28.0 gram
Body weight, male, day 21 ([3]; 5×FAD mice, 1 mg/kg/day, mean): 27.8 gram
Body weight, male, day 24 ([3]; 5×FAD mice, 1 mg/kg/day, mean): 27.6 gram
Body weight, male, day 27 ([3]; 5×FAD mice, 1 mg/kg/day, mean): 28.0 gram
Body weight, male, day 30 ([3]; 5×FAD mice, 1 mg/kg/day, mean): 27.0 gram

Water solubility relative to 1 [4]: much lower degrees of water solubility
pKa [5]: 5
logβ (Cu + L = CuL) ([6]; Cu(II):L = 1:2, [2] = 50 μM): 5.6(8)
Approximate dissociation constant for Cu(II), 1:1 complex ([6]; UV–vis variable-pH titrations): micromolar range
pCu (=−log[Cu(II)]free) ([6]; pH 6.6): 6.24
Structure (SMILES): COc1cc(NCc2ccccn2)cc(OC)c1 [compound 2, 3,5-dimethoxy-N-(pyridin-2-ylmethyl)aniline]
Toxicity induced by metal–Aβ [1]: diminished

Structure (SMILES): CN(C)c1ccc(NCc2ccc[nH]2)cc1 [compound 4, N^1-((1H-pyrrol-2-yl)methyl)-N^4,N^4-dimethylbenzene-1,4-diamine]
Solubility in the 2-deoxyribose assay buffer ([4]; phosphate buffer pH 7.2): poor solubility under the assay conditions
viability at up to 20 μM [7]: ~60%
